Measurements published in ChEMBL document CHEMBL1127996, “Structure and synthesis of clausenaquinone-a. A novel carbazolequinone alkaloid and bioactive principle from Clausena excavata” (Bioorg Med Chem Lett, 1994).
Values after ≈ are worked out from the molar mass of the structure shown.

Columns and labels:
RPMI-7951 = test: Cytotoxicity in RPMI-7951 cell line; format: functional, cell-based; settings: Homo sapiens
TE-671 = test: Cytotoxicity in TE671 cell line; format: functional, cell-based; settings: Homo sapiens
HCT-8 = test: Cytotoxicity in HCT-8 cell line; format: functional, cell-based; settings: Homo sapiens
Oryctolagus cuniculus = species: Oryctolagus cuniculus; test: Compound was tested for inhibition of platelet aggregation induced by arachidonic acid(100 uM) at a dose of 10 ug/mL in rabbit; format: functional
P388 = test: Cytotoxicity in P-388 cell line; format: functional, cell-based; settings: Mus musculus

## COC1=CC(=O)c2[nH]c3cc(O)c(C)cc3c2C1=O
RPMI-7951
  IC50: 0.22 µg/mL (≈ 0.855 µM)
TE-671
  IC50: 3.82 µg/mL (≈ 14.8 µM)
HCT-8
  IC50: 0.92 µg/mL (≈ 3.58 µM)

## COC1=CC(=O)c2[nH]c3ccc(C)c(O)c3c2C1=O
RPMI-7951
  IC50: 0.33 µg/mL (≈ 1.28 µM)
Oryctolagus cuniculus
  Inhibition: 100%
TE-671
  IC50: 0.17 µg/mL (≈ 0.661 µM)
P388
  IC50: 2.24 µg/mL (≈ 8.71 µM)
HCT-8
  IC50: 1.82 µg/mL (≈ 7.07 µM)
